In the oligonucleotide strings, read from the 5' end, every base follows the letter of its sugar. An asterisk marks phosphorothioate; unmarked linkages are phosphodiester. Other units and linkages are bracketed, terminal groups are in braces. A string of capitals states the bases alone. {NAG37} = tridentate N-acetyl-galactosamine targeting ligand, structure (NAG37)s; [invAb] = inverted abasic unit; m = 2'-O-methyl; f = 2'-fluoro
Tests used:
ANGPTL3 gene [1] = test: Example 12: serum total cholesterol in LDLR knockout mice; type: in vivo, LDLR KO mice
Text: (§1) To evaluate the effect of RNAi agent administration in a disease model, mice having a genetic mutation for the LDL receptor (referred to herein as LDLR KO mice) were commercially obtained (The Jackson Laboratory). The LDLR KO mice are homozygous for the Ldlr^tm1Her mutation, and have elevated serum cholesterol levels, particularly when placed on a high fat diet. For three weeks prior to the onset of the study, thirty-nine (39) LDLR KO mice were placed on a high fat diet (Teklad Custom Diets TD.88137). An additional eight (8) LDLR KO mice were placed on a normal chow diet over the same three-week period. Pre-dose serum samples were taken on day −15 and day −1 after a four hour fast. At day 1, each mouse was given a single subcutaneous administration of 200 μl/30 g animal body weight containing the respective mg/kg dose of an ANGPTL3 RNAi agent in D5W (dextrose in 5% water), control (D5W) with no RNAi agent, or a control RNAi agent that included a nucleotide sequence designed to target the Hepatitis B Virus (HBV) genome. A second injection of the same formulation was administered to the animals on day 29. The dosing regimen for the study is recited in the following Table 60:
(§2) Each mouse remained on its respective diet through the duration of study. The RNAi agent tested (AD05488) included a modified sequence and an N-acetyl-galactosamine-containing targeting ligand conjugated to the 5′ terminal end of the sense strand. (See Tables 3, […] modified sequences and targeting ligand structures). The injections were performed between the skin and muscle (i.e. subcutaneous injections) into the loose skin over the neck and shoulder area. Serum was collected on days 8, 15, 22, 29 (pre-second dose), 36, 43, 50, and 57. LDLR KO mice were fasted for four hours prior to each collection. On day 15, four (4) LDLR KO mice from Groups 1, 2, and 3 (i.e., the groups being administered the high fat “Western” diet) were sacrificed after serum collection, and on day 29, an additional four (4) LDLR KO mice from Groups 1, 2, and 3 were sacrificed after serum collection, for the purpose of performing mRNA assessments.
(§3) ANGPTL3 protein levels in serum were measured by ELISA assay (R&D Systems), according to the manufacturer's recommendations. Triglycerides, total cholesterol, high-density lipoprotein (HDL), and low-density lipoprotein (LDL) in serum were measured on a Cobas® Integra 400 (Roche Diagnostics), according to the manufacturer's recommendations.
(§4) The ANGPTL3 protein levels, triglyceride levels, total cholesterol levels, HDL levels, and LDL levels for each animal were normalized. For normalization, respective levels of ANGPTL3 protein, TG, total cholesterol, HDL, or LDL for each animal at a time point was divided by the average pre-treatment level of expression in that animal (in this case the average of day −15 and day −1) to determine the ratio of expression “normalized to pre-treatment.”
(§5) Expression at a specific time point was then normalized to the D5W control group that was administered the same diet (i.e., either the high fat “Western” diet or the normal chow-fed diet) by dividing the “normalized to pre-treatment” ratio for an individual animal by the mean “normalized to pretreatment” ratio of all mice in the D5W control group on the respective same diet, resulting in expression for each time point normalized to that in the control group.

ANGPTL3 gene [2] = test: Example 12: serum HDL in LDLR knockout mice; type: in vivo, LDLR KO mice; settings: 3.0 mg/kg sc day 1
Text: as §1, §2, §3, §4, §5

ANGPTL3 gene [3] = test: Example 10: serum total cholesterol in mice; type: in vivo; settings: 0.5 mg/kg single SC injection day 1, female C57bl/6 mice, n=3, ratio to D5W control
Description: To assess the in vivo activity of further ANGPTL3 RNAi agents that are designed to target position 304 on the ANGPTL3 gene, six- to eight-week-old female C57bl/6 mice were used. Pre-dose serum samples were taken at day −1 after a four hour fast. At day 1, each mouse was given a single subcutaneous administration of 200 μl containing 0.5 mg/kg (mpk) of an ANGPTL3 RNAi agent in D5W (dextrose in 5% water), or control (D5W) with no RNAi agent, according to the dosing groups recited in Table 47.
Each of the RNAi agents included a modified sequence and an N-acetyl-galactosamine-containing targeting ligand conjugated to the 5′ terminal end of the sense strand. (See Tables 3, 4, and 5 for modified sequences and targeting ligand structures). As noted above, each of the ANGPTL3 RNAi agents dosed in this study included nucleotide sequences designed to target the ANGPTL3 gene at position 304. The injections were performed between the skin and muscle (i.e. subcutaneous injections) into the loose skin over the neck and shoulder area. Three (3) mice in each group were tested (n=3). Serum was collected on days 8, 15, 22, 29, and for some groups on day 36 (i.e., Groups 1, 2, and 9-13 only). Mice were fasted for four hours prior to each collection. ANGPTL3 protein levels in serum were measured by ELISA assay (R&D Systems), according to the manufacturer's recommendations. Triglycerides, total cholesterol, high-density lipoprotein (HDL), and low-density lipoprotein (LDL) in serum were measured on a Cobas® Integra 400 (Roche Diagnostics), according to the manufacturer's recommendations.
The ANGPTL3 protein levels, triglyceride levels, total cholesterol levels, HDL levels, and LDL levels for each animal were normalized. For normalization, the level of ANGPTL3 protein, triglyceride, HDL, and total cholesterol, respectively, for each animal at a time point, was divided by the pre-treatment level of expression in that animal (in this case at day −1) to determine the ratio of expression “normalized to pre-treatment.” Expression at a specific time point was then normalized to the D5W control group by dividing the “normalized to pre-treatment” ratio for an individual animal by the mean “normalized to pretreatment” ratio of all mice in the D5W control group.

AD05488: RNAi agent duplex: antisense AM07235-AS, sense AM07234-SS (antisense mU*fA*mC*fUmGfAmUfCmAfAmAfUmAfUmGfUmUfGmAfG*mC; sense {NAG37}*[invAb]*mGmCmUmCmAmAmCmAfUfAfUmUmUmGmAmUmCmAmGmUmA*[invAb])
reductions in total cholesterol (ANGPTL3 gene [1]; 3.0 mg/kg on days 1 and 29 (Groups 2 and 5), LDLR KO mice): significant reductions | Avg Total Chol Normalized to Pre-Treatment and Control (Diet Matched) (ANGPTL3 gene [1]; 3.0 mg/kg sc day 1, High Fat Diet, Day 8): 0.524 | Avg Total Chol Normalized to Pre-Treatment and Control (Diet Matched) (ANGPTL3 gene [1]; 3.0 mg/kg sc day 1, High Fat Diet, Day 15): 0.438 | Avg Total Chol Normalized to Pre-Treatment and Control (Diet Matched) (ANGPTL3 gene [1]; 3.0 mg/kg sc day 1, High Fat Diet, Day 22): 0.410 | Avg Total Chol Normalized to Pre-Treatment and Control (Diet Matched) (ANGPTL3 gene [1]; 3.0 mg/kg sc day 1, High Fat Diet, Day 29 (pre-second dose)): 0.410 | Avg Total Chol Normalized to Pre-Treatment and Control (Diet Matched) (ANGPTL3 gene [1]; 3.0 mg/kg sc day 1, Normal Diet, Day 8): 0.645 | Avg Total Chol Normalized to Pre-Treatment and Control (Diet Matched) (ANGPTL3 gene [1]; 3.0 mg/kg sc day 1, Normal Diet, Day 15): 0.683 | Avg Total Chol Normalized to Pre-Treatment and Control (Diet Matched) (ANGPTL3 gene [1]; 3.0 mg/kg sc day 1, Normal Diet, Day 22): 0.691 | Avg Total Chol Normalized to Pre-Treatment and Control (Diet Matched) (ANGPTL3 gene [1]; 3.0 mg/kg sc day 1, Normal Diet, Day 29 (pre-second dose)): 0.636 | Avg Total Chol Normalized to Pre-Treatment and Control (Diet Matched) (ANGPTL3 gene [1]; 3.0 mg/kg sc days 1 and 29, High Fat Diet, Day 36): 0.438 | Avg Total Chol Normalized to Pre-Treatment and Control (Diet Matched) (ANGPTL3 gene [1]; 3.0 mg/kg sc days 1 and 29, High Fat Diet, Day 43): 0.363 | Avg Total Chol Normalized to Pre-Treatment and Control (Diet Matched) (ANGPTL3 gene [1]; 3.0 mg/kg sc days 1 and 29, High Fat Diet, Day 50): 0.374 | Avg Total Chol Normalized to Pre-Treatment and Control (Diet Matched) (ANGPTL3 gene [1]; 3.0 mg/kg sc days 1 and 29, High Fat Diet, Day 57): 0.341 | Avg Total Chol Normalized to Pre-Treatment and Control (Diet Matched) (ANGPTL3 gene [1]; 3.0 mg/kg sc days 1 and 29, Normal Diet, Day 36): 0.758 | Avg Total Chol Normalized to Pre-Treatment and Control (Diet Matched) (ANGPTL3 gene [1]; 3.0 mg/kg sc days 1 and 29, Normal Diet, Day 43): 0.657 | Avg Total Chol Normalized to Pre-Treatment and Control (Diet Matched) (ANGPTL3 gene [1]; 3.0 mg/kg sc days 1 and 29, Normal Diet, Day 50): 0.824 | Avg Total Chol Normalized to Pre-Treatment and Control (Diet Matched) (ANGPTL3 gene [1]; 3.0 mg/kg sc days 1 and 29, Normal Diet, Day 57): 0.684 | Avg HDL Normalized to Pre-Treatment and Control (Diet Matched) (ANGPTL3 gene [2]; High Fat Diet, Day 8): 0.693 | Avg HDL Normalized to Pre-Treatment and Control (Diet Matched) (ANGPTL3 gene [2]; High Fat Diet, Day 15): 0.735 | Avg HDL Normalized to Pre-Treatment and Control (Diet Matched) (ANGPTL3 gene [2]; High Fat Diet, Day 22): 0.716 | Avg HDL Normalized to Pre-Treatment and Control (Diet Matched) (ANGPTL3 gene [2]; High Fat Diet, Day 29 (pre-second dose)): 0.711 | Avg HDL Normalized to Pre-Treatment and Control (Diet Matched) (ANGPTL3 gene [2]; Normal Diet, Day 8): 0.645 | Avg HDL Normalized to Pre-Treatment and Control (Diet Matched) (ANGPTL3 gene [2]; Normal Diet, Day 15): 0.745 | Avg HDL Normalized to Pre-Treatment and Control (Diet Matched) (ANGPTL3 gene [2]; Normal Diet, Day 22): 0.766 | Avg HDL Normalized to Pre-Treatment and Control (Diet Matched) (ANGPTL3 gene [2]; Normal Diet, Day 29 (pre-second dose)): 0.737 | Average Total Cholesterol Normalized to Pre-Treatment and Control (ANGPTL3 gene [3]; Day 8): 0.659 | Average Total Cholesterol Normalized to Pre-Treatment and Control (ANGPTL3 gene [3]; Day 15): 0.808 | Average Total Cholesterol Normalized to Pre-Treatment and Control (ANGPTL3 gene [3]; Day 22): 0.763 | Average Total Cholesterol Normalized to Pre-Treatment and Control (ANGPTL3 gene [3]; Day 29): 0.743 | Average Total Cholesterol Normalized to Pre-Treatment and Control (ANGPTL3 gene [3]; Day 36): 0.824

Reference: patent US12729377B2, “RNAi agents and compositions for inhibiting expression of angiopoietin-like 3 (ANGPTL3), and methods of use” (Arrowhead Pharmaceuticals, Inc., priority 2017, dated 2026)
